# Test results published in patent US10934263B2, “Charged ion channel blockers and methods for use” (Nocion Therapeutics, Inc., priority 2019, dated 2021).
# Experiments:
# [1] = molecular target: T1, NaV1.7 (Homo sapiens, UniProt Q15858); assay: Whole cell patch clamp, internal block of NaV1.7 current (compound in internal solution); type: cell-based; conditions: % inhibition at 10 μM, compound applied internally, manual patch clamp; read-out: Nav1.7 Intracellular Inhibition
# T1 construct: expressed in transfected cells; tetracycline-inducible, kept under hygromycin and blasticidin
# Outline: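 Tetracycline-induced NaV1.7 cells, whole-cell patch clamp at room temperature with compound in CsCl internal solution (pH 7.2), Ringer bath (pH 7.4). Held at −100 mV, steps to −20 mV; after baseline, four 30-s 5 Hz trains. Peak inward current at end of last train divided by baseline gives fraction remaining.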
# [2] = PAMPA membrane permeability assay; type: in vitro ADME; conditions: PAMPA permeability coefficient, GIT lipid, buffer pH 7.4, 4 hours incubation
# Outline: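 Passive permeability across GIT lipid-coated artificial membrane; compounds at 50 μM in pH 7.4 buffer in donor wells, incubated 4 h. Donor, acceptor and reference concentrations read by UV spectroscopy, permeability coefficient calculated from spectral AUCs.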
# [3] = molecular target: T1, NaV1.7; assay: Whole cell patch clamp, external block of NaV1.7 current (compound in external solution); type: cell-based; conditions: % inhibition at test concentration 1,000 μM, compound applied externally; read-out: Nav1.7 Extracellular Inhibition
# Description: Representative compounds of the invention were synthesized according to the described methods and tested for the ability to inhibit voltage-gated sodium channels.
# NaV1.7 was expressed upon induction with tetracycline. Cells were cultured in DMEM containing 10% dialyzed Fetal Bovine Serum (VWR, Radnor, Pa.), 1% Glutamax (VWR, Radnor, Pa.), 1% Penicillin-Streptomycin (VWR, Radnor, Pa.), 100 mg/L Hygromycin (Thermo Fisher Scientific, Waltham, Mass. and 5 mg/L Blasticidin (Alfa Aesar, Haverhill, Mass.). Cells were grown and maintained at 37° C. in a humidified environment containing 10% CO2 in air. Cells were detached from the culture flask for passage and harvested using 0.05% Trypsin-EDTA (Thermo Fisher Scientific, Waltham, Mass.). To induce NaV1.7, cells were induced with tetracycline (0.1-1 μg/mL, IBI Scientific, Peosta, Iowa) the day before recording and plated onto 24-well plates. Cells were washed with DPBS (VWR, Radnor, Pa.), trypsinized and then triturated five times in 10 mL of growth media to break apart cell aggregates. For one 24-well plate, 2 mL of cell suspension was mixed with 23 mL of fresh growth media and 0.1-1 μg/mL tetracycline added. 1 ml of mixed media with cells was then added to each well of a 24-well plate, with a 12 mm coverslip already placed in the bottom of the well. Cells were then incubated in 37° C. and 10% CO2 overnight.
# The intracellular solution contained the following (in mM) CsCl 135, NaCl 10, EGTA 10, HEPES 10, MgCl2 2, adjusted to pH 7.2 with CsOH. The external solution was a normal Ringer solution containing (in mM) NaCl 155, HEPES 10, glucose 10, KCl 3.5, CaCl2 1.5, MgCl2 1 adjusted to pH 7.4 with NaOH. CsCl is from Alfa Aesar, Haverhill, Mass. All other chemicals are from Sigma-Aldrich, St. Louis, Mo. In order to test the degree of internal block by test compounds the compounds were dissolved in internal solution at the indicated test concentration. […] In order to test the degree of external block by test compounds the compounds were dissolved in external solution at the indicated test concentration.
# 18-24 hours after cells were induced with tetracycline, coverslips were placed into a chamber filled with Normal Ringer solution at room temperature and the chamber placed on a microscope. Pipettes were pulled from borosilicate glass on a P97 puller (Sutter Instrument, Novato, Calif.) and polished with a MF-830 Microforge (Narishige International USA, Inc, Amityville, N.Y.) to have a resistance of 1.5-2.5 MΩ when filled with CsCl internal solution at room temperature. Healthy cells (those that are round and translucent with no visible blemishes) were chosen for seal formation. A seal was formed between the pipette and the cell, and a brief pulse of suction was used to “break in” and establish the whole-cell configuration. The membrane potential was held at −100 mV before the voltage protocol began. Only cells with series resistance between 1.5-5 MΩ were retained for analysis. The voltage protocol was as follows: Cells were held at −100 mV for 12 ms followed by a hyperpolarizing step to −105 mV for 12 ms to monitor the leak. Cells were then stepped back to −100 mV for 40 ms. Cells were then depolarized to −20 mV for 10 ms and then returned to −100 mV for 26 ms.
# Once the recording was started, the voltage protocol was run at 30 second intervals for 5 minutes to get a stable baseline. This is followed by 5 Hz stimulation of the same voltage protocol run until the end of experiment. […] The test compound is added for 5 minutes before washing out with normal Ringer's solution. Currents were recorded using PatchMaster software with Heka EPC10 (HEKA Electronics, Lambrecht, Germany). Only cells with inward current amplitudes at −20 mV between 400 pA and 4 nA were accepted. In addition, cells having leak currents greater than 10% of their current amplitudes were discarded. […]
# T1 sequence (Q15858 whole entry): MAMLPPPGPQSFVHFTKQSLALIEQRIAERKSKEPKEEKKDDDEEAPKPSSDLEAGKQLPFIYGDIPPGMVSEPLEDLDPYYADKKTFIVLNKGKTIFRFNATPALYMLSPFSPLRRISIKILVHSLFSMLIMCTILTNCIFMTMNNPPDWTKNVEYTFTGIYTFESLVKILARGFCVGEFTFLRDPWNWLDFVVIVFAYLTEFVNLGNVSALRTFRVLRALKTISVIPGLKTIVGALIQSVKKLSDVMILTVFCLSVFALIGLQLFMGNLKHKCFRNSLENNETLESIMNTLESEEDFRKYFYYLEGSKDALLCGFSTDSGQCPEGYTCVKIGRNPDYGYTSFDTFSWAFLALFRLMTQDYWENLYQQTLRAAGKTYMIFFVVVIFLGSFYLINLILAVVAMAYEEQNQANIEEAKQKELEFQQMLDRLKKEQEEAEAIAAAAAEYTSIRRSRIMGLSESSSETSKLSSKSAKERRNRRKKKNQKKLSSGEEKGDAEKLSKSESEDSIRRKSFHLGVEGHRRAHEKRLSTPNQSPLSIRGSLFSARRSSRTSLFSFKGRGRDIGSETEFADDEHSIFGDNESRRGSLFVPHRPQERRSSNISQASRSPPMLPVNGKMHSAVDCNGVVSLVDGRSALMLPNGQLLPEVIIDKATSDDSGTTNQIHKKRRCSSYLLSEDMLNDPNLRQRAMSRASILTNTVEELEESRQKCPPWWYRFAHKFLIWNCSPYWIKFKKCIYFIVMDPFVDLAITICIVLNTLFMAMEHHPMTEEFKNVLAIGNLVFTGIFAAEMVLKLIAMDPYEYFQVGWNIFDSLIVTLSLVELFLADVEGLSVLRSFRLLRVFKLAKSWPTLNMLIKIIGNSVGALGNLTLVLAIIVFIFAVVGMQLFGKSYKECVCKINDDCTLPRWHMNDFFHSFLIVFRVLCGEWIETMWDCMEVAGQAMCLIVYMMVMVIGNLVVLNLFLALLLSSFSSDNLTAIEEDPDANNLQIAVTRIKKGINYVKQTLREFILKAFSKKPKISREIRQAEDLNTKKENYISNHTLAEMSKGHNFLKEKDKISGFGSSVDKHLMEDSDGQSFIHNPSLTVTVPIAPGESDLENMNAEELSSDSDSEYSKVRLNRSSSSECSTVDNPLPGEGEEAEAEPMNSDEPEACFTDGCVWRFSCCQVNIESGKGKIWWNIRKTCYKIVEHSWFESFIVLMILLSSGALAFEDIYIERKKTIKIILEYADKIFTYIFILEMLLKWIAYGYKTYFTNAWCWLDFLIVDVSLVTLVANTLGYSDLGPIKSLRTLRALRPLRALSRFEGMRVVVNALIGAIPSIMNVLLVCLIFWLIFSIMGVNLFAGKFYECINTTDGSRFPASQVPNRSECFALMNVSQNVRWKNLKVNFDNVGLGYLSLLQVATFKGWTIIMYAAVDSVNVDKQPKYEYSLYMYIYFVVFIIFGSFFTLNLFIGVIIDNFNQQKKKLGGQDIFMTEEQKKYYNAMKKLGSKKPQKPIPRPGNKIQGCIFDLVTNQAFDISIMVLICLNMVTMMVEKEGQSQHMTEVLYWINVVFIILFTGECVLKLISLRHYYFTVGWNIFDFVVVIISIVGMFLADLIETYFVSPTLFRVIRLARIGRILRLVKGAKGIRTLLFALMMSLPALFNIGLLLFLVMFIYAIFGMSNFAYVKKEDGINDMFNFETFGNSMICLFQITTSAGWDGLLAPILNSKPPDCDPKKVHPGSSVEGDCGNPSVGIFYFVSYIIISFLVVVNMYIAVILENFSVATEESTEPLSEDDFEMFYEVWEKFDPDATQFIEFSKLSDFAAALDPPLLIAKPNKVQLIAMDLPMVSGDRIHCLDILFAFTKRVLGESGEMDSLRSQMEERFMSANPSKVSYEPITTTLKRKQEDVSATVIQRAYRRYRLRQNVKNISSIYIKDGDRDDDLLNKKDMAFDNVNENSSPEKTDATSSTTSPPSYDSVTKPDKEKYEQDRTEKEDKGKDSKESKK
Compound,inhibition at 10 µM [1],PAMPA (10^−6 cm/s) [2],inhibition at 1000 µM [3]
CNC(=O)Cc1ccc[n+](CC(=O)Nc2c(C)cccc2C)c1 [Compound 33],70 to 95%,++ (0.1-2.0 10^−6 cm/s),–
Cc1cccc(C)c1NC(=O)C[n+]1cccc(Cc2ccccc2)c1 [Compound 34],70 to 95%,++ (0.1-2.0 10^−6 cm/s),–
Cc1cccc(C)c1NC(=O)C[n+]1cccc(S(C)(=O)=O)c1 [Compound 46],70 to 95%,+ (<0.1 10^−6 cm/s),–
Cc1cccc(C)c1NC(=O)C[n+]1cccc(S(=O)(=O)N(C)C)c1 [Compound 47],70 to 95%,+ (<0.1 10^−6 cm/s),–
CCNc1ccc[n+](CC(=O)Nc2c(C)cccc2C)c1 [Compound 50],> 95%,+ (<0.1 10^−6 cm/s),–
Cc1cccc(C)c1NC(=O)C[n+]1cccc(N2CCCC2)c1 [Compound 51],> 95%,++ (0.1-2.0 10^−6 cm/s),–
Cc1cccc(C)c1NC(=O)C[n+]1cc2ccccc2n1C [Compound 54],70 to 95%,++ (0.1-2.0 10^−6 cm/s),–
Cc1cccc(C)c1NC(=O)C[n+]1cccc(C(F)(F)F)c1 [Compound 66],70 to 95%,++ (0.1-2.0 10^−6 cm/s),–
Cc1cccc(C)c1NC(=O)C[n+]1cccn1CC#N [Compound 69],40 to 70%,+ (<0.1 10^−6 cm/s),–
Cc1cccc(C)c1NC(=O)C[n+]1cccn1C1CCCC1 [Compound 71],> 95%,+ (<0.1 10^−6 cm/s),–
Cc1cccc(C)c1NC(=O)C[n+]1cccn1CC1CC1 [Compound 73],> 95%,+ (<0.1 10^−6 cm/s),–
CCOC(=O)CCCn1ccc[n+]1CC(=O)Nc1c(C)cccc1C [Compound 75],> 95%,+ (<0.1 10^−6 cm/s),< 40%
CCOC(=O)Cn1cc(C)c[n+]1CC(=O)Nc1c(C)cccc1C [Compound 76],70 to 95%,+ (<0.1 10^−6 cm/s),< 40%
Cc1cccc(C)c1NC(=O)C[n+]1cc(F)cc(-c2ccccc2)c1 [Compound 77],> 95%,+ (<0.1 10^−6 cm/s),–
CCCn1c(C)cc[n+]1CC(=O)Nc1c(C)cccc1C [Compound 81],70 to 95%,+ (<0.1 10^−6 cm/s),–
CCCCn1ccc[n+]1CC(=O)Nc1c(C)cccc1C [Compound 83],70 to 95%,+ (<0.1 10^−6 cm/s),–
CCOC(=O)c1cc(C)[n+](CC(=O)Nc2c(C)cccc2C)n1C [Compound 84],70 to 95%,+ (<0.1 10^−6 cm/s),–
COC(=O)c1c(F)c[n+](CC(=O)Nc2c(C)cccc2C)cc1F [Compound 89],40 to 70%,+ (<0.1 10^−6 cm/s),–
Cc1cccc(C)c1NC(=O)C[n+]1c(C)cc(C)n1C [Compound 94],70 to 95%,+ (<0.1 10^−6 cm/s),–
CCn1ccc(C)[n+]1CC(=O)Nc1c(C)cccc1C [Compound 95],< 40%,+ (<0.1 10^−6 cm/s),–
COc1cc(OC)c[n+](CC(=O)Nc2c(C)cccc2C)c1 [Compound 98],70 to 95%,+ (<0.1 10^−6 cm/s),–
CCCn1ccc(C)[n+]1CC(=O)Nc1c(C)cccc1C [Compound 101],70 to 95%,+ (<0.1 10^−6 cm/s),–
Cc1cccc(C)c1NC(=O)C[n+]1cc(OCc2ccccc2)ccc1Cl [Compound 103],> 95%,+ (<0.1 10^−6 cm/s),–
CCn1c(C)cc[n+]1CC(=O)Nc1c(C)cccc1C [Compound 104],70 to 95%,+ (<0.1 10^−6 cm/s),–
Cc1cccc(C)c1NC(=O)C(Cc1ccccc1)[n+]1ccccc1 (stereo not drawn) [Compound 106],> 95%,+ (<0.1 10^−6 cm/s),–
Cc1cccc(C)c1NC(=O)C(CC(C)C)[n+]1ccccc1 (stereo not drawn) [Compound 108],70 to 95%,++ (0.1-2.0 10^−6 cm/s),–
Cc1cccc(C)c1NC(=O)Cn1ccc[n+]1CC(=O)Nc1c(C)cccc1C [Compound 109],> 95%,+ (<0.1 10^−6 cm/s),< 40%
